Test: Phase 1 hepatic impairment study, safety (TEAEs) after single oral 20 mg tablet
[1] = mild hepatic impairment (N = 8)
[2] = moderate hepatic impairment (N = 8)
[3] = normal hepatic function (N = 14)

Method: The secondary objective of the study was to assess the safety and tolerability of a single dose of paltusotine in subjects with varying degrees of hepatic impairment.
Safety and tolerability were assessed by the following endpoints: reported adverse events (AEs), clinical laboratory test results (hematology, coagulation, serum chemistry, and urinalysis), vital sign measurements, and 12-lead electrocardiogram results
All 36 subjects who were enrolled in the study received all planned single doses of paltusotine 20 mg (1×20 mg tablet) and were included in the safety and PK analysis populations.

Compound: N#Cc1cccc(-c2ccc3ncc(-c4cc(F)cc(F)c4)c(N4CCC(N)CC4)c3c2)c1O [paltusotine, 3-[4-(4-amino-1-piperidyl)-3-(3,5-difluorophenyl)-6-quinolyl]-2-hydroxybenzonitrile]
- discontinuation due to a TEAE (all 36 subjects): No subjects discontinued
- safety and tolerability (hepatic impairment and normal subjects): safe and generally well tolerated
- Any SAEs, number of occurrences [1]: 1
- Any TEAE, number of occurrences [1]: 3
- Related TEAE Abdominal discomfort, subjects n (%) [1]: 0
- Related TEAE Diarrhea, number of occurrences [1]: 1
- Related TEAE Diarrhea, subjects n (%) [1]: 1 (12.5%)
- Related TEAE Epigastric discomfort, subjects n (%) [1]: 0
- Related TEAE Fatigue, subjects n (%) [1]: 0
- Related TEAE Haematuria, number of occurrences [1]: 1
- Related TEAE Haematuria, subjects n (%) [1]: 1 (12.5%)
- Related TEAE Headache, subjects n (%) [1]: 0
- Related TEAE Neutropenia, subjects n (%) [1]: 0
- Related TEAE Pain, subjects n (%) [1]: 0
- Related TEAE Paraesthesia, subjects n (%) [1]: 0
- SAEs Not related to study drug (strongest relationship), subjects n (%) [1]: 1 (12.5%)
- SAEs Not related to study drug, number of occurrences [1]: 1
- SAEs Related to study drug (strongest relationship), subjects [1]: 0
- Subjects reporting any SAEs, subjects n (%) [1]: 1 (12.5%)
- Subjects reporting any TEAE, subjects n (%) [1]: 2 (25.0%)
- TEAE Abdominal discomfort, subjects n (%) [1]: 0
- TEAE COVID-19, subjects n (%) [1]: 0
- TEAE Death, number of occurrences [1]: 1
- TEAE Diarrhea, number of occurrences [1]: 1
- TEAE Diarrhea, subjects n (%) [1]: 1 (12.5%)
- TEAE Epigastric discomfort, subjects n (%) [1]: 0
- TEAE Fatigue, subjects n (%) [1]: 0
- TEAE Haematuria, number of occurrences [1]: 1
- TEAE Haematuria, subjects n (%) [1]: 1 (12.5%)
- TEAE Headache, subjects n (%) [1]: 0
- TEAE Neutropenia, subjects n (%) [1]: 0
- TEAE Pain, subjects n (%) [1]: 0
- TEAE Paraesthesia, subjects n (%) [1]: 0
- TEAE SOC Blood and lymphatic system disorders, subjects n (%) [1]: 0
- TEAE SOC Gastrointestinal disorders, number of occurrences [1]: 1
- TEAE SOC Gastrointestinal disorders, subjects n (%) [1]: 1 (12.5%)
- TEAE SOC General disorders and administration site conditions, number of occurrences [1]: 1
- TEAE SOC General disorders and administration site conditions, subjects n (%) [1]: 1 (12.5%)
- TEAE SOC Infections and infestations, subjects n (%) [1]: 0
- TEAE SOC Nervous system disorders, subjects n (%) [1]: 0
- TEAE SOC Renal and urinary disorders, number of occurrences [1]: 1
- TEAE SOC Renal and urinary disorders, subjects n (%) [1]: 1 (12.5%)
- TEAEs Not Related to study drug (strongest relationship), subjects n (%) [1]: 0
- TEAEs Related to study drug (strongest relationship), subjects n (%) [1]: 2 (25.0%)
- TEAEs Related to study drug, number of occurrences [1]: 2
- TEAEs by maximum severity: Mild, number of occurrences [1]: 2
- TEAEs by maximum severity: Mild, subjects n (%) [1]: 1 (12.5%)
- TEAEs by maximum severity: Moderate, subjects n (%) [1]: 0
- TEAEs by maximum severity: Severe, number of occurrences [1]: 1
- TEAEs by maximum severity: Severe, subjects n (%) [1]: 1 (12.5%)
- Total number of SAEs reported [1]: 1
- Total number of TEAEs reported [1]: 3
- Any TEAE, number of occurrences [2]: 4
- Related TEAE Abdominal discomfort, subjects n (%) [2]: 0
- Related TEAE Diarrhea, number of occurrences [2]: 1
- Related TEAE Diarrhea, subjects n (%) [2]: 1 (12.5%)
- Related TEAE Epigastric discomfort, subjects n (%) [2]: 0
- Related TEAE Fatigue, number of occurrences [2]: 1
- Related TEAE Fatigue, subjects n (%) [2]: 1 (12.5%)
- Related TEAE Haematuria, subjects n (%) [2]: 0
- Related TEAE Headache, number of occurrences [2]: 1
- Related TEAE Headache, subjects n (%) [2]: 1 (12.5%)
- Related TEAE Neutropenia, subjects n (%) [2]: 0
- Related TEAE Pain, number of occurrences [2]: 1
- Related TEAE Pain, subjects n (%) [2]: 1 (12.5%)
- Related TEAE Paraesthesia, subjects n (%) [2]: 0
- SAEs Not related to study drug (strongest relationship), subjects n (%) [2]: 0
- SAEs Related to study drug (strongest relationship), subjects [2]: 0
- Subjects reporting any SAEs, subjects n (%) [2]: 0
- Subjects reporting any TEAE, subjects n (%) [2]: 2 (25.0%)
- TEAE Abdominal discomfort, subjects n (%) [2]: 0
- TEAE COVID-19, subjects n (%) [2]: 0
- TEAE Death, subjects n (%) [2]: 0
- TEAE Diarrhea, number of occurrences [2]: 1
- TEAE Diarrhea, subjects n (%) [2]: 1 (12.5%)
- TEAE Epigastric discomfort, subjects n (%) [2]: 0
- TEAE Fatigue, number of occurrences [2]: 1
- TEAE Fatigue, subjects n (%) [2]: 1 (12.5%)
- TEAE Haematuria, subjects n (%) [2]: 0
- TEAE Headache, number of occurrences [2]: 1
- TEAE Headache, subjects n (%) [2]: 1 (12.5%)
- TEAE Neutropenia, subjects n (%) [2]: 0
- TEAE Pain, number of occurrences [2]: 1
- TEAE Pain, subjects n (%) [2]: 1 (12.5%)
- TEAE Paraesthesia, subjects n (%) [2]: 0
- TEAE SOC Blood and lymphatic system disorders, subjects n (%) [2]: 0
- TEAE SOC Gastrointestinal disorders, number of occurrences [2]: 1
- TEAE SOC Gastrointestinal disorders, subjects n (%) [2]: 1 (12.5%)
- TEAE SOC General disorders and administration site conditions, number of occurrences [2]: 2
- TEAE SOC General disorders and administration site conditions, subjects n (%) [2]: 1 (12.5%)
- TEAE SOC Infections and infestations, subjects n (%) [2]: 0
- TEAE SOC Nervous system disorders, number of occurrences [2]: 1
- TEAE SOC Nervous system disorders, subjects n (%) [2]: 1 (12.5%)
- TEAE SOC Renal and urinary disorders, subjects n (%) [2]: 0
- TEAEs Not Related to study drug (strongest relationship), subjects n (%) [2]: 0
- TEAEs Related to study drug (strongest relationship), subjects n (%) [2]: 2 (25.0%)
- TEAEs Related to study drug, number of occurrences [2]: 4
- TEAEs by maximum severity: Mild, number of occurrences [2]: 3
- TEAEs by maximum severity: Mild, subjects n (%) [2]: 1 (12.5%)
- TEAEs by maximum severity: Moderate, number of occurrences [2]: 1
- TEAEs by maximum severity: Moderate, subjects n (%) [2]: 1 (12.5%)
- TEAEs by maximum severity: Severe, subjects n (%) [2]: 0
- Total number of SAEs reported [2]: 0
- Total number of TEAEs reported [2]: 4
- Any TEAE, number of occurrences [3]: 6
- Related TEAE Abdominal discomfort, number of occurrences [3]: 1
- Related TEAE Abdominal discomfort, subjects n (%) [3]: 1 (7.1%)
- Related TEAE Diarrhea, number of occurrences [3]: 2
- Related TEAE Diarrhea, subjects n (%) [3]: 2 (14.3%)
- Related TEAE Epigastric discomfort, number of occurrences [3]: 1
- Related TEAE Epigastric discomfort, subjects n (%) [3]: 1 (7.1%)
- Related TEAE Fatigue, subjects n (%) [3]: 0
- Related TEAE Haematuria, subjects n (%) [3]: 0
- Related TEAE Headache, subjects n (%) [3]: 0
- Related TEAE Neutropenia, subjects n (%) [3]: 0
- Related TEAE Pain, subjects n (%) [3]: 0
- Related TEAE Paraesthesia, number of occurrences [3]: 1
- Related TEAE Paraesthesia, subjects n (%) [3]: 1 (7.1%)
- SAEs Not related to study drug (strongest relationship), subjects n (%) [3]: 0
- SAEs Related to study drug (strongest relationship), subjects [3]: 0
- Subjects reporting any SAEs, subjects n (%) [3]: 0
- Subjects reporting any TEAE, subjects n (%) [3]: 4 (28.6%)
- TEAE Abdominal discomfort, number of occurrences [3]: 1
- TEAE Abdominal discomfort, subjects n (%) [3]: 1 (7.1%)
- TEAE COVID-19, subjects n (%) [3]: 0
- TEAE Death, subjects n (%) [3]: 0
- TEAE Diarrhea, number of occurrences [3]: 3
- TEAE Diarrhea, subjects n (%) [3]: 3 (21.4%)
- TEAE Epigastric discomfort, number of occurrences [3]: 1
- TEAE Epigastric discomfort, subjects n (%) [3]: 1 (7.1%)
- TEAE Fatigue, subjects n (%) [3]: 0
- TEAE Haematuria, subjects n (%) [3]: 0
- TEAE Headache, subjects n (%) [3]: 0
- TEAE Neutropenia, subjects n (%) [3]: 0
- TEAE Pain, subjects n (%) [3]: 0
- TEAE Paraesthesia, number of occurrences [3]: 1
- TEAE Paraesthesia, subjects n (%) [3]: 1 (7.1%)
- TEAE SOC Blood and lymphatic system disorders, subjects n (%) [3]: 0

Source: patent US12208092B2, “Compositions and methods for administering paltusotine to patients with hepatic impairment” (CRINETICS PHARMACEUTICALS, INC., priority 2023, dated 2025)
